Data: patent US11286263B2, “Macrocyclic fluorine substituted indole derivatives” (The Broad Institute, Inc., priority 2017, dated 2022)
Where a name gives a salt, the structure may show the parent alone. Read-outs that look alike come from different tables or passages of the source.

Legend:
[1] = system: SUDHL10; test: Antiproliferation assay SUDHL10 (Assay 7); format: cell-based; conditions: Homo sapiens, SU-DHL10; SUDHL10 cells, 72 h, CellTiter-Glo; median; read-out: IC50 Antiproli SUDHL10 [M] (median)
Experimental: (§1) Assessment of the Anti-Proliferative Effect of Compounds in Different Cell Lines
(§2) The impact of compounds on the proliferation of different cell lines was assessed using the CellTiter-Glo® Luminescent Cell Viability reagent from Promega (G7573).
(§3) In parallel, cells were plated in a reference (day 0) plate for time zero determination.
(§4) Rim wells were excluded. The cells were incubated for 72 h hours in a humidified incubator at 37° C. The day 0 plate was measured by adding 30 μL/well of CTG solution (CellTiter-Glo® Luminescent Cell Viability reagent, Promega G7573) to time zero wells in the reference plate followed by a 10 minutes incubation and luminescence reading at 0.1 ms. using the PHERAstar FS microplate reader (BMG Labtech).
(§5) After 72 h incubation, the treated plates were measured in the same way as the day 0 plate mentioned above.

[2] = biological target: MCL1 protein (Homo sapiens (Human), UniProt Q07820); test: PIxEL: protein-protein interaction in permeabilized cells by ELISA (Assay 5); format: cell-based; conditions: permeabilized RKO cells, biotin-BIM BH3 peptide, median
Experimental: Assay 5 PI×EL: Protein-Protein Interaction in Permeabilized Cells by ELISA
Most MCL1 protein molecules are localized at the mitochondria outer membrane and sequester pro-apoptotic proteins through binding of their BCL2 homology domain 3 (BH3 domain). MEB buffer (150 mM mannitol, 10 mM HEPES pH 7.5, 50 mM KCl, 20 μM EDTA, 20 μM EGTA, 5 mM potassium succinate, 0.1% protease-free BSA (SIGMA) with low dose digitonin (0.002%) permeabilizes plasma membrane while leaves live mitochondria, where MCL1 maintains its native localization and conformation. Unlike biophysical assays (e.g. TR-FRET) that use truncated recombinant MCL1 protein, this assay uses full length endogenous MCL1 protein at mitochondria outer membrane. It measures the interaction between MCL1 protein and biotinylated BIM BH3 peptide. Compounds can compete with BIM BH3 peptide to bind to MCL1 protein. This serum free assay measures the affinity between MCL1 protein and compound in permeabilized cells, therefore it is not affected by serum binding and cell permeability, and can measure the intrinsic compound affinity.
On day 1, RKO colon cancer cell line cells were plated at 0.8 million cells/ml, 100 μl/well in 96-well flat bottom TC plates (Corning). MCL1 antibody (Santa Cruz sc-12756) were diluted at 200 fold (final concentration 1 μg/ml) in carbonate buffer (Thermo Fisher Scientific, pH 9.6), and 50 μl of diluted antibody was added to each well of high bind ELISA plates (SARSTEDT). Each plate was tapped to make sure liquid covering entire bottom of wells and incubate at 37° C. overnight.
On the second day, MCL1 antibody was washed from ELISA plate. 250 μl Odyssey® Blocking Buffer (PBS) (Li-Cor) was added to each well, incubated at room temperature for at least 1 hour, then washed once with 250 μl 1×PBST. Plates with RKO cells were gently washed once with 100 μl/well PBS, once with 100 μl/well MEB buffer without digitonin, then 100 μl of MEB buffer with 0.002% digitonin was gently added to each well. Compounds were added with HP Tecan compound dispenser in 3-fold dilution series, highest dose 30 μM, 10-dose per compound in quadruplicates. Biotin-BIM peptide (synthesized by 21st Century) was added with HP Tecan compound dispenser at 0.2 μM immediately after the addition of compounds. Plates were rocked for 1 hour at room temperature. Then MEB buffer was aspirated and 50 μl of CHAPS buffer (50 mM Tris-Cl, pH 7.4, 150 mM NaCl, 1% CHAPS, 1 mM EDTA, 1 mM EGTA, complete protease inhibitors (Roche), PhosSTOP (Roche)) was added to each well. Plates were rocked for 1 hour at 4° C., then 45 μl cell lysate from each well were transferred to ELISA plates coated with MCL1 antibody. Plates were incubated overnight in the cold room with rocking.
On the third day, ELISA plates were washed once with 250 μl 1×PBST. Streptavidin-poly-HRP (Thermo Fisher Scientific) was diluted to 20 ng/ml in Odyssey blocking buffer plus 0.05% Triton-100, and 100 μl was added to each well of the ELISA plate. Plates were incubated at room temperature for 1 hour with rocking, then washed with 100 μL 1×PBST for 3 times. Each SuperSignal ELISA Femto Maximum Sensitivity substrate was added to a 50-ml tube and mixed, then 100 μl of mixed substrate was added to each well. Plates were shaken for 1 minute then luminescence was measured by Envision plate reader […]. Signal of each well were normalized by no-compound control and no-cell control. IC50 was calculated using Graphic Pad PRISM software.

[3] = biological target: MCL-1 (Homo sapiens (Human), UniProt Q07820, K194A/K197A/R201A); test: Protein-compound interaction assay (SPR assay, Assay 8); format: binding; conditions: immobilized MBP-MCL-1, 25° C., geometric mean
Excerpt: Assay 8 Protein-Compound Interaction Assay (SPR Assay)
The ability of the compounds described in this invention to bind to MCL-1 may be determined using surface plasmon resonance (SPR). This allows for the quantification of binding in terms of the equilibrium dissociation constant (KD [M]), as well as association and dissociation rate constants (kon [1/M 1/s] and koff [1/s], respectively). The measurements may be performed using Biacore® T200 or Biacore® S200 instruments (GE Healthcare).
For SPR measurements, recombinant MCL-1 (amino acids 173-321, N-terminal fused to Maltose Binding Protein (MBP) (SEQ ID 1) purchased from Beryllium (Bedford, Mass., USA)) was immobilized using standard amine coupling (Johnsson B et al, Anal Biochem. 1991 Nov. 1; 198(2):268-77). Briefly, carboxymethylated dextran biosensor chips (Series S Sensor Chip CMS, GE Healthcare) were activated with 1-ethyl-3-(3-dimethylaminopropyl)-carbodiimide hydrochloride (EDC) and N-hydroxysuccinimide (NHS) according to the supplier's instructions. MBP-MCL-1 was diluted in 1×PBS-P+ (GE Healthcare) and injected on the activated chip surface. Subsequently, a solution of 1 M ethanolamine-HCl (GE Healthcare) was injected to block unreacted groups, resulting in approximately 400-2500 response units (RU) of immobilized protein. A reference surface was generated by treatment with NHS-EDC and ethanolamine-HCl. […] For SPR binding-measurements, serial dilutions of compound (eight dilution steps, typically ranging from 0.2 nM up to 1 μM) were injected over immobilized protein. […] Compounds were injected for 60 s followed by a dissociation time of up to 1000 s.
The double-referenced sensorgrams were fit to a simple reversible Langmuir 1:1 reaction mechanism as implemented in the Biacore® T200 and S200 evaluation software (T200 evaluation software version 2.0 and S200 evaluation software version 1.0, GE Healthcare).

[4] = system: HMC-1-8; test: Antiproliferation assay HMC-1-8 (Assay 7); format: cell-based
Experimental: as §1, §2, §3, §4, §5

[5] = 72 h, HMC-1-8 cells, CellTiter-Glo, single determinations, read-out: IC50 Antiproli HMC-1-8
[6] = HMC-1-8 cells, 72 h, CellTiter-Glo; single determinations; read-out: IC50 Antiproli HMC-1-8

MCL1 protein, sequence (Q07820 whole entry): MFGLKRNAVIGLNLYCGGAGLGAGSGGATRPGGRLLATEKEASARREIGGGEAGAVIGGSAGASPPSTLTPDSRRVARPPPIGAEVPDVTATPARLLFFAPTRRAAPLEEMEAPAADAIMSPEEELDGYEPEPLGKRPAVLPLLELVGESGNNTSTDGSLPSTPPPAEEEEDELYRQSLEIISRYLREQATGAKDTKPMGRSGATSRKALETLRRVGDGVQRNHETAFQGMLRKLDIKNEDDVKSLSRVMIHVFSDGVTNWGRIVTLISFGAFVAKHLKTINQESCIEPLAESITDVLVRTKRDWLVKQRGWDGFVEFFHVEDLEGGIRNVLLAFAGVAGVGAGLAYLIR
MCL-1, sequence (Q07820 whole entry K194A/K197A/R201A, looked up): as the sequence (Q07820 whole entry) above, with K194A, K197A, R201A counted along it

## Cc1c2c(nn1C)COCCCCn1c(C(=O)O)c(CCCOc3cccc4c3CCCC4)c3ccc(F)c-2c31 (racemic) [Example 18, (rac)-13-fluoro-11,12-dimethyl-1-(3-((5,6,7,8-tetrahydronaphthalen-1-yl)oxy)propyl)-4,5,6,7,9,11-hexahydropyrazolo[4′,3′:9,10][1]oxa[6]azacycloundecino[8,7,6-hi]indole-2-carboxylic acid]
[1]
  IC50: 1.5e-06 M

## Cc1c2c(nn1C)COCCCCn1c(C(=O)O)c(CCCOc3cccc4c3CCC4)c3ccc(F)c-2c31 (racemic) [Example 19, (rac)-1-(3-((2,3-dihydro-1H-inden-4-yl)oxy)propyl)-13-fluoro-11,12-dimethyl-4,5,6,7,9,11-hexahydropyrazolo[4′,3′:9,10][1]oxa[6]azacycloundecino[8,7,6-hi]indole-2-carboxylic acid]
[1]
  IC50: 1.5e-06 M

## Cc1nn(C)c2c1-c1c(F)ccc3c(CCCOc4cccc5cc(F)ccc45)c(C(=O)O)n(c13)CCCCOC2 (racemic) [Example 32, (rac)-13-fluoro-1-(3-((6-fluoronaphthalen-1-yl)oxy)propyl)-10,12-dimethyl-4,5,6,7,9,10-hexahydropyrazolo[4′,3′:9,10][1]oxa[6]azacycloundecino[8,7,6-hi]indole-2-carboxylic acid]
[1]
  IC50: 1.5e-06 M

## CCc1c2c(nn1C)COCCCCn1c(C(=O)O)c(CCCOc3cccc4cc(F)ccc34)c3ccc(F)c-2c31 (single isomer, unassigned; enantiomer 1) [Example 22, 3-ethyl-4-fluoro-7-{3-[(6-fluoronaphthalen-1-yl)oxy]propyl}-2-methyl-2,10,11,12,13,15-hexahydropyrazolo[4′,3′:9,10][1,6]oxazacycloundecino[8,7,6-hi]indole-8-carboxylic acid-N-ethylethanamine salt (enantiomer 1)]
[2]
  IC50: 1340 nM
[3]
  Kd: 1.6 nM
  koff: 0.0072 s⁻¹
  kon [1/M 1/s]: 4.4E6 1/M 1/s
[4]; [5]
  IC50: 2440 nM
[4]; [6]
  IC50: 3530 nM

## CCc1c2c(nn1C)COCCCCn1c(C(=O)O)c(CCCOc3cccc4cc(F)ccc34)c3ccc(F)c-2c31 (single isomer, unassigned; enantiomer 1) [Example 24, 3-ethyl-4-fluoro-7-{3-[(6-fluoronaphthalen-1-yl)oxy]propyl}-2-methyl-2,10,11,12,13,15-hexahydropyrazolo[4′,3′:9,10][1,6]oxazacycloundecino[8,7,6-hi]indole-8-carboxylic acid (enantiomer 1)]
[2]
  IC50: 424 nM
[3]
  Kd: 2.9 nM
  kon: 3.3e+06 M⁻¹ s⁻¹
[3]; read-out: koff
  koff: 0.0097 s⁻¹
[4]; [6]
  IC50: 2500 nM

## CCc1nn(C)c2c1-c1c(F)ccc3c(CCCOc4cccc5cc(F)ccc45)c(C(=O)O)n(c13)CCCCOC2 (single isomer, unassigned; enantiomer 1) [Example 39, 3-ethyl-4-fluoro-7-{3-[(6-fluoronaphthalen-1-yl)oxy]propyl}-1-methyl-1,10,11,12,13,15-hexahydropyrazolo[4′,3′:9,10][1,6]oxazacycloundecino[8,7,6-hi]indole-8-carboxylic acid-N-ethylethanamine salt (enantiomer 1)]
[2]
  IC50: 2380 nM
[3]
  Kd: 1.5 nM
  kon: 1.4e+07 M⁻¹ s⁻¹
[3]; read-out: koff
  koff: 0.021 s⁻¹
[4]; [5]
  IC50: 3170 nM
